Assay results taken from patent publication US20090054509A1, “Octahydropentalene-Substituted Pyrazoline Derivatives, Their Prepartion and Use as Medicaments” (LABORATORIOS DEL DR. ESTEVE, S.A., priority 2005, published 2009).

Key:
[1] = molecular target: T1, recombinant human cannabinoid 1 receptor (CB1) (Homo sapiens, UniProt P21554); experiment: [35S]GTPγS binding assay, antagonism against WIN 55,212-2; format: biochemical; conditions: compound at 1 μM against WIN 55,212-2 dose response, CHO-hCB1 membranes, 100% = effect of internal standard CB1-antagonist
T1 construct: expressed in transfected cells; membranes prepared
T1 sequence (P21554 whole entry): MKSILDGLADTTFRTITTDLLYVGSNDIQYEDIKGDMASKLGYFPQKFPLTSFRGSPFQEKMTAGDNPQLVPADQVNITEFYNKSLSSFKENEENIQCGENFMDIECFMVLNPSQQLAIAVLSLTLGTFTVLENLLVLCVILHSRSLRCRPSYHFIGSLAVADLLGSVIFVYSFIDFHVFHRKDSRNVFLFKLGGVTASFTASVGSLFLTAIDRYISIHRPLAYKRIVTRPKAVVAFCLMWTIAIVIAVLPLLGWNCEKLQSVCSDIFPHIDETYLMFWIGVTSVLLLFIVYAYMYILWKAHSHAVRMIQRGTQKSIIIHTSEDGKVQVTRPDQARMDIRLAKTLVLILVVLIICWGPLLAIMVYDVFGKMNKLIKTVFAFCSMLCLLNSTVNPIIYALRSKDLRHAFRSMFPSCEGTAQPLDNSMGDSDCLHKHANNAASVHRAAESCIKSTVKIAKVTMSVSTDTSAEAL
Procedure: Chinese hamster ovary (CHO) cells stably expressing recombinant human cannabinoid 1 receptor (CB1) were cultured in nutrient mixture Ham's F 12 supplemented with 10% heat-inactivated fetal bovine serum, 2 mM L-glutamine, 50 U/ml penicillin, 50 U/ml streptomycin and 0.5 mg/ml geneticin. In order to obtain cells, culture flasks were washed twice with phosphate buffered saline and scraped. Then, cells were collected by centrifugation (200×g, 10 min) and stored dry at −80° C. Cells were homogenized in ice-cold 20 mM HEPES, 10 mM EDTA (pH 7.5) and centrifuged at 40,000×g for 15 min at 4° C. The pellet was resuspended in 20 mM HEPES, 0.1 mM EDTA (pH 7.5) and centrifuged for 15 min at 4° C. The final pellet was resuspended in 20 mM HEPES, 0.1 mM EDTA (pH 7.5), and divided in aliquots and stored at −80° C. until use.
The reaction was performed in 96-well plates. Membranes (15 µg protein/well) were incubated for 60 min at 30° C. in buffer (50 mM HEPES, 100 mM KCl, 5 mM MgCl2, 1 mM EDTA, 0.1% wt/vol bovine serum albumin, 5 μM GDP, saponin (10 μg/ml), 0.5 nM [^35S]GTPγS, pH 7.4) with compound at 1 μM final concentration in either the absence or presence of dose response curve of agonist WIN 55, 212-2 between 3 nM and 3 μM. The incubation was terminated by rapid filtration through Millipore Multiscreen glass fiber FB, and rinsed two-times with ice-cold assay buffer. Filter plates were dried and 30 μl of scintillation liquid was added. Radioactivity was determined using Wallac Microbeta Trilux. Each experiment was performed at least in duplicate. A WIN 55, 212-2 dose-response was systematically performed.
The average of basal [^35S]GTPγS binding was subtracted from all binding data. In order to compare the antagonism results from one screening campaign to another one, the difference between the maximal agonist effect of WIN 55, 212-2 alone, and the maximal antagonism effect due to WIN 55, 212-2 with an internal standard CB1-antagonist was defined as 100%.

[2] = In vivo testing for antiobesic activity, acute treatment; conditions: rats, acute oral administration; body weight difference versus control
Procedure: Normally handled rats were habituated to a reversed cycle 12/12 h, and the compound as well as saline was acutely orally administered. After administration the cumulated food intake (g) was measured at 6 h and 23 h. Following that the difference in body weight between control and compound treated animals was measured.

Row | SMILES | Antagonism (%) [1] [%] | Antagonism (%) ([1]; hydrochloride) | reduction of body weight [2]
1 | COc1ccc([C@H]2[C@@H](C)C(C(=O)NN3CC4CCCC4C3)=NN2c2ccc(Cl)cc2Cl)cc1.Cl (relative stereo) [Example 7, cis-1-(2,4-dichlorophenyl)-N-(hexahydrocyclopenta[c]pyrrol-2(1H)-yl)-5-(4-methoxyphenyl)-4-methyl-4,5-dihydro-1H-pyrazole-3-carboxamide hydrochloride] | 148 | – | –
2 | C[C@H]1C(C(=O)NN2CC3CCCC3C2)=NN(c2ccc(Cl)cc2Cl)[C@H]1c1ccc(F)cc1.Cl (relative stereo) [Example 5, cis-1-(2,4-dichlorophenyl)-5-(4-fluorophenyl)-N-(hexahydrocyclopenta-[c]pyrrol-2(1H)-yl)-4-methyl-4,5-dihydro-1H-pyrazole-3-carboxamide hydrochloride] | 108 ± 13 | – | –
3 | C[C@H]1C(C(=O)NN2CC3CCCC3C2)=NN(c2ccc(Cl)cc2Cl)[C@H]1c1ccc(Br)cc1.Cl (relative stereo) [Example 3, cis-5-(4-bromophenyl)-1-(2,4-dichlorophenyl)-N-(hexahydrocyclopenta-[c]pyrrol-2(1H)-yl)-4-methyl-4,5-dihydro-1H-pyrazole-3-carboxamide hydrochloride] | 99 ± 2 | – | –
4 | C[C@H]1C(C(=O)NN2CC3CCCC3C2)=NN(c2ccc(Cl)cc2Cl)[C@H]1c1ccc(Cl)cc1.Cl (single isomer, unassigned) [1 (HCl), cis-5-(4-chlorophenyl)-1-(2,4-dichlorophenyl)-N-(hexahydrocyclopenta-[c]pyrrol-2(1H)-yl)-4-methyl-4,5-dihydro-1H-pyrazole-3-carboxamide hydrochloride] | – | 102 ± 7 | –
5 | C[C@H]1C(C(=O)NN2CC3CCCC3C2)=NN(c2ccc(Cl)cc2Cl)[C@H]1c1ccc(Cl)cc1.Cl (single isomer, unassigned) [Example 1, cis-5-(4-chlorophenyl)-1-(2,4-dichlorophenyl)-N-(hexahydrocyclopenta-[c]pyrrol-2(1H)-yl)-4-methyl-4,5-dihydro-1H-pyrazole-3-carboxamide hydrochloride] | – | 112 ± 0 | good activity
